Experimental data published in PMC9241959 (Chemical Science, 2022).

Molecular target: Phaseolus vulgaris erythroagglutinin (PHA-E) (Phaseolus vulgaris, UniProt P05088)
Assay: glycan microarray, fluorescence
Assay type: binding
Details: labelled compound: immobilised AEAB conjugate at reducing end

Chain of Phaseolus vulgaris erythroagglutinin (PHA-E) (P05088 22-275 limits assumed): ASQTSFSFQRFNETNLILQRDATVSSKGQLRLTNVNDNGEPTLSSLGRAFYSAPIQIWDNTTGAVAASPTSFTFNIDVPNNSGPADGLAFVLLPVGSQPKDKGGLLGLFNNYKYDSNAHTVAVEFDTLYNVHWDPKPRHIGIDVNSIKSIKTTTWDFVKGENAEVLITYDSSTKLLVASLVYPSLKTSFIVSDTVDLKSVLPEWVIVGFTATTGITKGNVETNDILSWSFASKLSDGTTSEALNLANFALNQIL

`CC(=O)N[C@H]1[C@H](O[C@H]2[C@H](O)[C@@H](NC(C)=O)C(O)O[C@@H]2CO)O[C@H](CO)[C@@H](O[C@@H]2O[C@H](CO[C@H]3O[C@H](CO)[C@@H](O)[C@H](O)[C@@H]3O[C@@H]3O[C@H](CO)[C@@H](O)[C@H](O)[C@H]3NC(C)=O)[C@@H](O[C@@H]3O[C@H](CO)[C@@H](O)[C@H](O)[C@H]3NC(C)=O)[C@H](O[C@H]3O[C@H](CO)[C@@H](O)[C@H](O)[C@@H]3O[C@@H]3O[C@H](CO)[C@@H](O)[C@H](O)[C@H]3NC(C)=O)[C@@H]2O)[C@@H]1O` (stereo partly shown) [compound 1, agalacto bisected N-glycan 1] was tested. Which “RFU at 1 ug/mL lectin” value did it give?
Its value is 9197 RFU.
